Reference: patent publication US20220411495A1, “POSITIVE ALLOSTERIC MODULATORS OF THE CALCIUM-SENSING RECEPTOR” (VIB VZW, priority 2019, published 2022)

Molecular target: T1, CaSR 7-transmembrane domain allosteric binding site (Homo sapiens, UniProt P41180)
T1 sequence (P41180 20-1078): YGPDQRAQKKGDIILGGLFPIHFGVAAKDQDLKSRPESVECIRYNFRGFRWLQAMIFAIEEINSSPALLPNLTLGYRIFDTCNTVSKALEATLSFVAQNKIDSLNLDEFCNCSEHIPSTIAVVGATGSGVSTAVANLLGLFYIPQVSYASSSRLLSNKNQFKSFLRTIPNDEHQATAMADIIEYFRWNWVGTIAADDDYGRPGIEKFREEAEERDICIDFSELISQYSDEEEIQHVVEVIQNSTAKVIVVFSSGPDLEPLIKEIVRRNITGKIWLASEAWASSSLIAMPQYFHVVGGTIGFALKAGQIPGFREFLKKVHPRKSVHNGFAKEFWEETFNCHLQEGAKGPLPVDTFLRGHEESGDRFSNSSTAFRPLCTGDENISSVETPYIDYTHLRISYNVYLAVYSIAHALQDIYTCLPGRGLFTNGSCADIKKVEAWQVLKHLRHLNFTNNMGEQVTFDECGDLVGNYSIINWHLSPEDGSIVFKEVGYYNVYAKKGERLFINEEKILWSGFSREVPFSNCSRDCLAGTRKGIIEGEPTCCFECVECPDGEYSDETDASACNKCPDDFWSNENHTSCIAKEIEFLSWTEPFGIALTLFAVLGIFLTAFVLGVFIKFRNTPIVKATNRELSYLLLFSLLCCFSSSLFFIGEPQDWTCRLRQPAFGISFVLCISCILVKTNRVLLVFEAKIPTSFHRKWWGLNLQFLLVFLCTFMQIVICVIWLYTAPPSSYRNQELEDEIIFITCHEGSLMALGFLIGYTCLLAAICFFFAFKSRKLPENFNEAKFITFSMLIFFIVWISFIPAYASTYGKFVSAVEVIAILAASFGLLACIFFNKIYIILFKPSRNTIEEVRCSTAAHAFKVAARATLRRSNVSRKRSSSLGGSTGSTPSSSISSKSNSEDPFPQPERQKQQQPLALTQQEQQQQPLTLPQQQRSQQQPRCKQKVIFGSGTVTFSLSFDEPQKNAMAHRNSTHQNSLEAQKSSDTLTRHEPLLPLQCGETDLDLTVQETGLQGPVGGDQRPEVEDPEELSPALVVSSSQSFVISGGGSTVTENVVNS
Assay: [3H]evocalcet radioligand displacement
Protocol: For the seven different nanobodies with potencies in the 10 to 600 nM range, further characterization of their recognition site on the CaSR antigen was performed, since the identification of the nanobody binding-sites at the CaSR is key to understand their interaction and mode-of-action at a molecular and structural level, and will further aid in the development of second-generation nanobodies with enhanced pharmacological parameters. Nanobodies belonging to each family of the five different nanobody families are expected to interact with distinct regions of the CaSR.

SMILES: CC(C)(Cc1ccc2ccccc2c1)NC[C@@H](O)COc1cccc(Cl)c1C#N [NPS 2143]
- Displacement of [3H]evocalcet binding: did displace
